Assay results from patent US10314847B2, “Scalarane sesterterpenoid, pharmaceutical composition and topoisomerase II and Hsp90 inhibitor for treating cancer, and use and preparation method thereof” (NATIONAL DONG HWA UNIVERSITY, priority 2017, dated 2019).
pIC50: −log10 of the molar value.

Tests used:
K562 = assay: MTT assay, cytotoxic effect on K562; type: cell-based; conditions: Homo sapiens; K562, molar value in text
From the text: (§1) The cell lines were obtained from the American Type Culture Collection (ATCC, Manassas, Va., U.S.A.) or the Japanese Collection of Research Biosources (JCRB) Cell Bank (Japan). […] Antibodies against XIAP, NFκB (p65), GADD, CDK 4, HSF 1, ATF 6 and β-tubulin were obtained from Santa Cruz Biotechnology (Santa Cruz, Calif., U.S.A.). The Hybond ECL transfer membrane and ECL Western blotting detection kits were obtained from Amersham Life Sciences (Amersham, U.K.).
(§2) Several cancer cell lines including leukemia K562, Molt 4, and HL 60 cells, prostate cancer LNCaP cells, colon cancer DLD-1 cells and breast cancer T-47D cells were used to evaluate the antiproliferative activity (referring to Table 2).

U937 = assay: MTT assay, cytotoxic effect on U937; type: cell-based; conditions: Homo sapiens, U-937; U937, molar value in text
From the text: as §1, §2

human topoisomerase II = target: T1, human topoisomerase II (Homo sapiens, UniProt P11388); assay: Assay of topoisomerase II catalytic inhibitors and poisons (cell-free pHOT1 DNA relaxation/cleavage); type: biochemical; conditions: cell-free system; read-out: Topo II activity IC50 (converted)
T1 construct: purchased Topogen
T1 sequence (P11388 whole entry): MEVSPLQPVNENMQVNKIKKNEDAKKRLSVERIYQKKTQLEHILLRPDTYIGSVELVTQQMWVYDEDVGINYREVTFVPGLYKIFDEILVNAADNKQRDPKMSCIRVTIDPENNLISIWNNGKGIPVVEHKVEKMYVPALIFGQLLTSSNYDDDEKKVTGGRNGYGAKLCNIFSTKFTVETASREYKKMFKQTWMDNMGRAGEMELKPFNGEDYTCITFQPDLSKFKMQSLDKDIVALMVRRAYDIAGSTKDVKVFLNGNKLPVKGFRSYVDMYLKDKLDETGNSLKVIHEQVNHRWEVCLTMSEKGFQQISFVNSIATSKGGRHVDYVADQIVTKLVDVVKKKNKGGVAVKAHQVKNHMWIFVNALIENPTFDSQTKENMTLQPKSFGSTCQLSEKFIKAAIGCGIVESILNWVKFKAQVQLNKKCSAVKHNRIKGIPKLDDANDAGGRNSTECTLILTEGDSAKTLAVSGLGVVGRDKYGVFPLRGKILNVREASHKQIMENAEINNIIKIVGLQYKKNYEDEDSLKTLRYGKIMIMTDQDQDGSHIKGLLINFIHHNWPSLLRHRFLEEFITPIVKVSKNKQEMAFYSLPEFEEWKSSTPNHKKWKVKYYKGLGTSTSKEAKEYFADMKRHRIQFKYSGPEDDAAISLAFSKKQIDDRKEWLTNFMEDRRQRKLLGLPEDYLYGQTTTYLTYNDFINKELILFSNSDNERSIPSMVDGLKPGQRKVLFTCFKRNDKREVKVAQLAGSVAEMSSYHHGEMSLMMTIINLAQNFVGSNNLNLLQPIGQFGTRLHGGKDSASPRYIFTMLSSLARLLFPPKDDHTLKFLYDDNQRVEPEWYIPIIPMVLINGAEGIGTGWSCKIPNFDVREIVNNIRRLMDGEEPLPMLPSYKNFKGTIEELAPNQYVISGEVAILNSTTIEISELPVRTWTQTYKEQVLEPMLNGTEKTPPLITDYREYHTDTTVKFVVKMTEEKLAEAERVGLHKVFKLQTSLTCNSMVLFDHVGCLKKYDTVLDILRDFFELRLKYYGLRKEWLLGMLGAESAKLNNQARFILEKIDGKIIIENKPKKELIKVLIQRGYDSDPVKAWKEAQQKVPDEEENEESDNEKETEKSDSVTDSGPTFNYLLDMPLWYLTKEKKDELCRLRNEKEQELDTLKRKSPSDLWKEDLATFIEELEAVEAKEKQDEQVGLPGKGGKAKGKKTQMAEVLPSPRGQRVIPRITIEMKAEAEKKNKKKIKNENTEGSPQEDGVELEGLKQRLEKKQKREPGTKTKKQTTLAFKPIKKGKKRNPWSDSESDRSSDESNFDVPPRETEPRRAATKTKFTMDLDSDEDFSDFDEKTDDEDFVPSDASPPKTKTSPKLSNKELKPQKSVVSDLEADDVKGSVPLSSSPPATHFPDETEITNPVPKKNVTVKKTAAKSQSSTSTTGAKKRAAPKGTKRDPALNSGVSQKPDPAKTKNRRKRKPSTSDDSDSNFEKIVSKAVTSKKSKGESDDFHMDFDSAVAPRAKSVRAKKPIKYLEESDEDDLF
Procedure: Assay of Topoisomerase II Catalytic Inhibitors and Poisons:
Reactions were terminated by adding 2 μL of 10% SDS to facilitate trapping the enzyme in a cleavage complex, followed by the addition of 2.5 μL of proteinase K (50 μg/mL) to digest the bound protein (incubated at 37° C. for 15 minutes) and finally by adding 0.1 volume of the sample loading dye. The DNA products were analyzed via electrophoresis through vertical 2% agarose gels at 2 voltage/cm in 0.5×TAE buffer. Gels were stained with ethidium bromide (EtBr) and photographed using an Eagle Eye II system (Stratagene, La Jolla, Calif., U.S.A.). The quantitative analysis of the DNA Topo II activity was performed.

γH2AX = assay: Western blot of γH2AX expression in Molt 4 cells; type: cell-based, human; conditions: Molt 4 cells, 0.0625, 0.125 and 0.25 μg/mL, 24 hours
Procedure: Protein expression was analyzed with Western blotting. GAPDH was used as the loading control.
In order to confirm whether the DNA damage-induced by the marine terpenoids of the present invention involved the inhibition of Topo II activity, a cell-free DNA cleavage assay using an enzyme-mediated negatively supercoiled pHOT1 plasmid DNA was applied. […] These marine terpenoids suppressed Topo II activity, resulting in the inhibition of supercoiled DNA relaxation in a dose-dependent manner (FIG. 2(A)). […] To determine whether the apoptotic mechanism of compounds 1 to 3 affects γH2AX (as a biomarker of DNA damage) induction, Western blot analysis was employed to examine the activation of γH2AX.

Molt 4 cells [1] = assay: Annexin V/PI apoptosis assay; type: cell-based, human; conditions: Molt 4 cells, 0.0625, 0.125 and 0.25 μg/mL, 24 hours, dose-dependent
Procedure: Annexin V/Propidium Iodide (PI) Apoptosis Assay:
The externalization of phosphatidylserine (PS) and membrane integrity were quantified using an annexin V-fluorescein isothiocyanate (annexin V-FITC) staining kit. In brief, 10^6 cells were grown in 35 mm diameter plates and were labeled with annexin V-FITC (10 μg/mL) and PI (20 μg/mL) prior to harvesting. After labeling, all plates were washed with a binding buffer and harvested. Cells were resuspended in the binding buffer at a concentration of 2×10^5 cells/mL before analysis by flow cytometer FACS-Calibur (Becton-Dickinson, San Jose, Calif., U.S.A.) and CellQuest software. Approximately 10,000 cells were counted for each determination.

[2] = tested on: ER stress-related proteins; assay: Western blot of ER stress-related proteins; type: cell-based, human; conditions: Molt 4 cells, time-dependent
Procedure: Oxidative stress is manifested by ROS overexpression and cannot be balanced by the available antioxidant machinery. Compound 1 of the present invention can damage the integrity of mitochondria, which are the major production sites of the superoxide anion, […]. The induction of the intracellular formation of ROS by compound 1 was determined with a carboxyl derivative of fluorescein, carboxy-H2DCFDA dye using flow cytometric analysis. […] In addition, ROS generation could induce ER stress leading to mitochondria-related apoptosis. To further investigate if ER stress is involved in the apoptotic effect induced by compound 1, Western blot analysis was used to determine the expression of ER stress-related proteins. […] Furthermore, the effect of compound 1 on the release of intracellular Ca^2+, was evaluated using fluorescent calcium indicator, Fluo 3. […] In FIG. 4(D), the induction of the typical executor caspases-3 and -7, and γH2AX, was also observed using Western blot analysis. To confirm the induction of DNA damage by compound 1 in Molt 4 cells, a comet assay under neutral electrophoresis condition was utilized. Thus, the effect of compound 1 (0.0625 μg/mL) at different time intervals (0, 3, 6 and 9 hours) on the level of nuclear DNA integrity was determined. […]

Molt 4 cells [3] = assay: Neutral comet assay for DNA double-strand breaks; type: cell-based, human; conditions: 0.0625 μg/mL, 0, 3, 6 and 9 hours
Procedure: Neutral Comet Assay for Detection of DNA Double-Strand Breaks (DSBs):
The assay was carried out using a CometAssay™ Kit (Trevigen, Gaithersburg, Md., U.S.A.) following the manufacturer's protocol for the neutral Comet assay. Briefly, cancer cells (2×10^5 cells/mL) were treated with compound 1 (0.0625 μg/mL) at the indicated time. Cells were combined with 1% low melting point agarose at a ratio of 1:10 (v/v) and immediately 75 μL of the mixture was pipetted onto CometSlide™ and allowed to set at 4° C. in the dark. The slides were immersed in an ice-cold lysis solution (Trevigen) for 30 to 60 minutes. […] The fluorescence images were analyzed using the TriTek Comet Image program to circumscribe the “head” and the “tail” regions of each comet and the integrated fluorescence values of each defined area were recorded. The comet length was measured from the trailing edge of the nucleus to the leading edge of the tail. […] The results were expressed as mean±standard deviation (SD) (*p<0.05).
Oxidative stress is manifested by ROS overexpression and cannot be balanced by the available antioxidant machinery. […] The induction of the intracellular formation of ROS by compound 1 was determined with a carboxyl derivative of fluorescein, carboxy-H2DCFDA dye using flow cytometric analysis. […]

## CC[C@@]1(C)CCC[C@]2(C)[C@H]3C[C@@H](OC(=O)C[C@@H](C)O)[C@]4(C)[C@@H](C=O)C(C(C)=O)=CC[C@H]4[C@]3(C)CC[C@@H]12 (relative stereo) [Compound 1, 12β-(3′β-hydroxybutanoyloxy)-20,24-dimethyl-24-oxo-scalara-16-en-25-al]
K562
  pIC50: 8.68
U937
  pIC50: 8.68
Human topoisomerase II
  IC50: 3950 nM
γH2AX
  Expression of γH2AX (DNA damage biomarker): significantly enhanced the expression of γH2AX in a dose-dependent manner
Molt 4 cells [1]
  Apoptotic population (annexin-V/PI): increase in the apoptotic population
[2]
  Expression of ER stress-related proteins: promoted the levels of Bip, Chop, Grp 94 and the activation and cleavage of ATF 6 but suppressed the levels of PERK and IRE 1
Molt 4 cells [3]
  DNA migration (comet tail, DSBs): increased the degree of DNA migration
Cal-27
  Cytotoxic effect IC50, Cal-27: 0.56 µg/mL
